Counter-ions that a name gives are not always drawn.
tested on: T1, primary mouse cortical neurons; assay: cells; set-up: Protection from NMDA-induced (30 uM, 10 min) neuronal death; Hoechst nuclear morphology by automated microscopy; settings: Cortical neurone, 20 h, read-out: % inhibition, inhibition of NMDA-induced cell death (protection score), 30 min pre-treatment
T1 construct: primary cortical neurons, DIV 10
How it was run: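 On DIV 10, primary mouse cortical neurons were given compound at 10 μM for 30 min at 37 °C, then 30 μM NMDA for 10 min, washed, and kept 20 h with compound. Dead cells were scored by nuclear morphology, and % protection was derived from survival relative to vehicle + NMDA and untreated controls.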

| SMILES | inhibition at 10 µM |
| --- | --- |
| Cc1cnc(C(=O)NCCc2ccc(S(=O)(=O)NC(=O)NC3CCCCC3)cc2)cn1 [Glipizide (Glucotrol)] | 9.36% |
| COc1ccc(Cl)cc1C(=O)NCCc1ccc(S(=O)(=O)NC(=O)NC2CCCCC2)cc1 [Glyburide (Diabeta)] | 0.906% |
| Cc1cc2c(C(C)C)c(O)c(O)c(C=O)c2c(O)c1-c1c(C)cc2c(C(C)C)c(O)c(O)c(C=O)c2c1O [Gossypol] | -2.2% |
| CN(C)Cc1c[nH]c2ccccc12 [Gramine] | -3.83% |
| COc1ccccc1OCC(O)CO (stereo not drawn) [Guaifenesin (Guaiphenesin)] | 13.1% |
| Nc1nc2c(ncn2[C@@H]2O[C@H](CO)[C@@H](O)[C@H]2O)c(=O)[nH]1 [Guanosine] | -1.96% |
| O=C(CCCN1CCC(O)(c2ccc(Cl)cc2)CC1)c1ccc(F)cc1 [Haloperidol (Haldol)] | 65% |
| Oc1cc2c(cc1O)[C@@H]1c3ccc(O)c(O)c3OC[C@]1(O)C2 [Hematoxylin (Hydroxybrazilin)] | 1.27% |
| COc1ccc([C@@H]2CC(=O)c3c(O)cc(O)cc3O2)cc1O [Hesperetin] | -3.04% |
| COc1ccc([C@@H]2CC(=O)c3c(O)cc(O[C@@H]4O[C@H](CO[C@@H]5O[C@@H](C)[C@H](O)[C@@H](O)[C@H]5O)[C@@H](O)[C@H](O)[C@H]4O)cc3O2)cc1O [Hesperidin] | -3.55% |
| C=CCc1ccc(O)c(-c2ccc(O)c(CC=C)c2)c1 [Honokiol] | -2.26% |
| CN(C)CCc1ccc(O)cc1 [Hordenine] | -0.889% |
| NNc1nncc2ccccc12 [Hydralazine hydrochloride] | -0.625% |
| NS(=O)(=O)c1cc2c(cc1Cl)NCNS2(=O)=O [Hydrochlorothiazide] | 8.57% |
| C[C@]12CCC(=O)C=C1CC[C@@H]1[C@@H]2[C@@H](O)C[C@@]2(C)[C@H]1CC[C@]2(O)C(=O)CO [Hydrocortisone (Cortisol)] | 4.6% |
| NC(=O)NO [Hydroxyurea (Cytodrox)] | -2.47% |
| C[C@H](CCC(=O)O)[C@H]1CC[C@H]2[C@@H]3C[C@H](O)[C@@H]4C[C@H](O)CC[C@]4(C)[C@H]3CC[C@]12C [Hyodeoxycholic acid (HDCA)] | -3.21% |
| O=c1[nH]cnc2nc[nH]c12 [Hypoxanthine] | 1.08% |
| COc1ccc(-c2oc3c(CC=C(C)C)c(O[C@@H]4O[C@H](CO)[C@@H](O)[C@H](O)[C@H]4O)cc(O)c3c(=O)c2O[C@@H]2O[C@@H](C)[C@H](O)[C@@H](O)[C@H]2O)cc1 [Icariin] | -2.42% |
| COc1cc(C(C)=O)ccc1OCCCN1CCC(c2noc3cc(F)ccc23)CC1 [Iloperidone (Fanapt)] | 21.7% |
| CC(C)Cn1cnc2c(N)nc3ccccc3c21 [Imiquimod] | -8.7% |
| CC1Cc2ccccc2N1NC(=O)c1ccc(Cl)c(S(N)(=O)=O)c1 (stereo not drawn) [Indapamide (Lozol)] | 0.426% |
| O=C1Nc2ccccc2/C1=C1/Nc2ccccc2C1=O [Indirubin] | 8.04% |
| OCc1c[nH]c2ccccc12 [Indole-3-carbinol] | -2.03% |
| COc1ccc2c(c1)c(CC(=O)O)c(C)n2C(=O)c1ccc(Cl)cc1 [Indomethacin (Indocid, Indocin)] | 3.41% |

| SMILES | inhibition at 10 µM |
| --- | --- |
| O=c1[nH]cnc2c1ncn2[C@@H]1O[C@H](CO)[C@@H](O)[C@H]1O [Inosine] | 19.8% |
| CC(C)[N+]1(C)[C@@H]2CC[C@H]1CC(OC(=O)C(CO)c1ccccc1)C2 (stereo partly drawn) [Ipratropium bromide] | 9.81% |
| CC(C)Oc1ccc2c(=O)c(-c3ccccc3)coc2c1 [Ipriflavone] | -1.69% |
| CCCCC1=NC2(CCCC2)C(=O)N1Cc1ccc(-c2ccccc2-c2nnn[nH]2)cc1 [Irbesartan (Avapro)] | 0.237% |
| O=C(/C=C/c1ccc(O)cc1)c1ccc(O)cc1O [Isoliquiritigenin] | 5.56% |
| NNC(=O)c1ccncc1 [Isoniazid (Tubizid)] | 45.6% |
| CC(C)NCC(O)c1ccc(O)c(O)c1 (stereo not drawn) [Isoprenaline hydrochloride] | -0.7% |
| CC1=C(/C=C/C(C)=C/C=C/C(C)=C\C(=O)O)C(C)(C)CCC1 [Isotretinoin] | -1.4% |
| O=c1c(O)c(-c2ccc(O)cc2)oc2cc(O)cc(O)c12 [Kaempferol] | -2.58% |
| CC(C(=O)O)c1cccc(C(=O)c2ccccc2)c1 (stereo not drawn) [Ketoprofen (Actron)] | 30.2% |
| O=C(c1ccccc1)c1ccc2n1CCC2C(=O)O (stereo not drawn) [Ketorolac (Toradol)] | 37.4% |
| c1coc(CNc2ncnc3[nH]cnc23)c1 [Kinetin (6-Furfuryladenine)] | -0.453% |
| C[C@H](O)[C@H](O)[C@@H](O)[C@@H](O)C=O [L(+)-Rhamnose Monohydrate] | 0.562% |
| CNC[C@@H](O)c1ccc(O)c(O)c1 [L-Adrenaline (Epinephrine)] | 0.37% |
| NC(=O)CC[C@H](N)C(=O)O [L-Glutamine] | -2.01% |
| C[N+](C)(C)C[C@H](O)CC(=O)[O-] [L-carnitine (Levocarnitine)] | 3.2% |
| Nc1ccn([C@@H]2CS[C@H](CO)O2)c(=O)n1 [Lamivudine (Epivir)] | 0.555% |
| Cc1c(OCC(F)(F)F)ccnc1C[S+]([O-])c1nc2ccccc2[nH]1 (stereo not drawn) [Lansoprazole] | -7.28% |
| CS(=O)(=O)CCNCc1ccc(-c2ccc3ncnc(Nc4ccc(OCc5cccc(F)c5)c(Cl)c4)c3c2)o1 [Lapatinib Ditosylate (Tykerb)] | 4.76% |
| Cc1oncc1C(=O)Nc1ccc(C(F)(F)F)cc1 [Leflunomide] | 15.6% |
| Nc1cccc2c1CN(C1CCC(=O)NC1=O)C2=O (stereo not drawn) [Lenalidomide] | -2.36% |
| N#Cc1ccc(C(c2ccc(C#N)cc2)n2cncn2)cc1 [Letrozole] | 0.34% |
| Nc1nc2c(c(=O)[nH]1)N(C=O)C(CNc1ccc(C(=O)N[C@@H](CCC(=O)O)C(=O)O)cc1)CN2 (stereo partly drawn) [Leucovorin Calcium] | -10.9% |
| c1ccc([C@H]2CN3CCSC3=N2)cc1 [Levamisole Hydrochloride (Ergamisol)] | 19.8% |
| N[C@@H](Cc1ccc(O)c(O)c1)C(=O)O [Levodopa (Sinemet)] | 0.209% |

| SMILES | inhibition at 10 µM |
| --- | --- |
| C[C@H]1COc2c(N3CCN(C)CC3)c(F)cc3c(=O)c(C(=O)O)cn1c23 [Levofloxacin (Levaquin)] | -4.92% |
| C#C[C@]1(O)CC[C@H]2[C@@H]3CCC4=CC(=O)CC[C@@H]4[C@H]3CC[C@@]21CC [Levonorgestrel (Levonelle)] | -1.05% |
| CCN(CC)CC(=O)Nc1c(C)cccc1C [Lidocaine (Alphacaine)] | -8.6% |
| CC1(C)O[C@H]2CC(=O)OC[C@]23[C@H]2CC[C@@]4(C)[C@H](c5ccoc5)OC(=O)[C@H]5O[C@]54[C@]2(C)C(=O)C[C@@H]13 [Limonin] | -3.17% |
| CCC[C@@H]1C[C@@H](C(=O)N[C@@H]([C@H]2O[C@H](SC)[C@H](O)[C@@H](O)[C@H]2O)[C@@H](C)O)N(C)C1 [Lincomycin hydrochloride (Lincocin)] | -7.87% |
| CC(=O)NC[C@H]1CN(c2ccc(N3CCOCC3)c(F)c2)C(=O)O1 [Linezolid (Zyvox)] | 37% |
| CCn1cc(C(=O)O)c(=O)c2cc(F)c(N3CCNC(C)C3)c(F)c21 (stereo not drawn) [Lomefloxacin hydrochloride (Maxaquin)] | 3.08% |
| CN(C)C(=O)C(CCN1CCC(O)(c2ccc(Cl)cc2)CC1)(c1ccccc1)c1ccccc1 [Loperamide hydrochloride] | -2.48% |
| Cc1cccc(C)c1OCC(=O)N[C@@H](Cc1ccccc1)[C@@H](O)C[C@H](Cc1ccccc1)NC(=O)[C@H](C(C)C)N1CCCNC1=O [Lopinavir (ABT-378)] | 1.09% |
| CCOC(=O)N1CCC(=C2c3ccc(Cl)cc3CCc3cccnc32)CC1 [Loratadine] | -11.1% |
| CCOC(=O)O[C@]1(C(=O)OCCl)CC[C@H]2[C@@H]3CCC4=CC(=O)C=C[C@]4(C)[C@H]3[C@@H](O)C[C@@]21C [Loteprednol Etabonate] | 30.7% |
| O=c1cc(-c2ccc(O)c(O)c2)oc2cc(O)cc(O)c12 [Luteolin] | -2.28% |
| C=CCc1ccc(O)c(-c2cc(CC=C)ccc2O)c1 [Magnolol] | -3.4% |
| CNCCC[C@]12CC[C@H](c3ccccc31)c1ccccc12 [Maprotiline hydrochloride] | 0.000867% |
| Cc1nnc(C(C)C)n1[C@@H]1C[C@H]2CC[C@@H](C1)N2CC[C@H](NC(=O)C1CCC(F)(F)CC1)c1ccccc1 [Maraviroc] | 2.4% |
| Cc1ccc(NC(=O)c2ccc(CN3CCN(C)CC3)cc2)cc1Nc1nc(-c2cccnc2)cs1 [Masitinib (AB1010)] | -5.13% |
| O=C1CCC[C@@H]2[C@H]3CCCN4CCC[C@@H](CN12)[C@@H]34 [Matrine ((+)-Matrine)] | -4.08% |
| CC(=O)O[C@]1(C(C)=O)CC[C@H]2[C@@H]3C=C(C)C4=CC(=O)CC[C@]4(C)[C@H]3CC[C@@]21C [Megestrol Acetate] | -7.04% |
| S=c1[nH]cnc2nc[nH]c12 [Mercaptopurine] | -8.52% |
| Nc1ccc(O)c(C(=O)O)c1 [Mesalamine (Lialda)] | 21.8% |
| O=S(=O)(O)CCS [Mesna (Uromitexan, Mesnex)] | -0.811% |
| C#C[C@]1(O)CC[C@H]2[C@@H]3CCc4cc(OC)ccc4[C@H]3CC[C@@]21C [Mestranol] | 11.8% |
| CN(C)C(=N)NC(=N)N [Metformin hydrochloride (Glucophage)] | 10.2% |
| C=C1c2cccc(O)c2C(O)=C2C(=O)[C@]3(O)C(O)=C(C(N)=O)C(=O)[C@@H](N(C)C)[C@@H]3[C@@H](O)[C@H]12 [Methacycline hydrochloride (Physiomycine)] | 13.5% |
| Cn1nnc2c(C(N)=O)ncn2c1=O [Methazolastone] | 14.3% |
